Source: ChEMBL document CHEMBL3508693 (2016)

Experiments:
CYP1A2 = molecular target: T1, CYP1A2 (Homo sapiens, UniProt P05177); test: Inhibitory activity of 200 uM SPP100 on 578 Pmoles of cDNA-derived CYP1A2 enzyme in microsome prepared from human lymphoblastoid cell line; type: ADME, microsomes; set-up: conc 200 uM, interact cpd conc 50 uM; details: probe phenacetin
T1 sequence (P05177 whole entry): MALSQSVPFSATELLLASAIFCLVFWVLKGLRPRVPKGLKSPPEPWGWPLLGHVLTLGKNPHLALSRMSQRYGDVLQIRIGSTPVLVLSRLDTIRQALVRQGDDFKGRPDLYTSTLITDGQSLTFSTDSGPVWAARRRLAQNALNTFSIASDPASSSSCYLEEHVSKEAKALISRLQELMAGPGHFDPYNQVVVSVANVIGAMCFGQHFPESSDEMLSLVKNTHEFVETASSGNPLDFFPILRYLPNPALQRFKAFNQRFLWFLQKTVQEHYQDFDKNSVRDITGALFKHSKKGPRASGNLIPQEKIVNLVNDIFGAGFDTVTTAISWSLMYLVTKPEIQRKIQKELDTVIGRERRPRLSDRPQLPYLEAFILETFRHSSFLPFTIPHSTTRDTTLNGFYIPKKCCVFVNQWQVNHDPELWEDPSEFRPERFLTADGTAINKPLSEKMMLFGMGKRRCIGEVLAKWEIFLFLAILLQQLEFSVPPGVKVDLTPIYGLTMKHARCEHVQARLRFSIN

CYP2C9 = CYP2C9 (Homo sapiens, UniProt P11712); test: Inhibitory activity of 200 uM SPP100 on 222 Pmoles of cDNA-derived CYP2C9 enzyme in microsome prepared from human lymphoblastoid cell line; type: ADME, microsomes; set-up: conc 200 uM, interact cpd conc 6 uM; details: probe diclofenac
CYP2C19 = CYP2C19 (Homo sapiens, UniProt P33261); test: Inhibition of CYP2C19 in human liver microsomes from 10 healthy donors at 200 uM aliskiren (SPP100); type: ADME, Microsome; set-up: conc 200 uM; details: probe S-mephenytoin (4'-hydroxylation)
[1] = Excretion of radioactivity (24-48h) in urine following single intravenous dose of 10 mg.Kg-1 [14C] aliskiren hemifumarate in rat; type: ADME, organism-based, Albino HAN:WIST; details: in vivo
[2] = AUC of [14C] aliskiren hemifumarate following single intravenous dose of [14C] aliskiren hemifumarate at 10 mg.Kg-1 level in mouse; type: ADME, organism-based, TgRasH2, Plasma; details: in vivo
Cytochrome P450 4F3 = molecular target: T2, Cytochrome P450 4F3 (Homo sapiens, UniProt Q08477); test: Metabolic clearance (ul.min.nmol-1 CYP) of aliskiren hemifumarate for CYP4F3B was determined in human liver microsome incubated with [14C]SPP100 hemifumarate; type: ADME; details: microsomes
T2 sequence (Q08477 whole entry): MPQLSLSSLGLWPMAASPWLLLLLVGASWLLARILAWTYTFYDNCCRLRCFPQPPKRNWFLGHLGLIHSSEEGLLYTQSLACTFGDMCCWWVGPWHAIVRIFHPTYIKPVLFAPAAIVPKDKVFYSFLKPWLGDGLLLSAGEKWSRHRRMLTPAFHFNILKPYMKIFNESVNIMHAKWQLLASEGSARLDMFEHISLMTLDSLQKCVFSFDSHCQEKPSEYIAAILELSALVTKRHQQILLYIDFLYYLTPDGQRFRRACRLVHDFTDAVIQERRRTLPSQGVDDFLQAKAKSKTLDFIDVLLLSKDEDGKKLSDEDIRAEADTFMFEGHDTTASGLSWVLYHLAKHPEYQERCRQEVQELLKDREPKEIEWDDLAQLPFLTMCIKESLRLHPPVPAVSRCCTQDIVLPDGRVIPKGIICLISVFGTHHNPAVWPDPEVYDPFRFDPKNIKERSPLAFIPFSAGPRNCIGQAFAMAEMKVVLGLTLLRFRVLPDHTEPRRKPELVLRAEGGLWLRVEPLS

[3] = Cmax (0-96h) of total radioactivity following oral administration of [14C] aliskiren hemifumarate at 100 mg.Kg-1 level in rat; type: ADME, organism-based, Albino HAN:WIST, Plasma; details: in vivo
[4] = Excretion (0-168h) of radioactivity in faeces following intravenous administration of [14C] aliskiren hemifumarate at 1 mg.Kg-1 level in marmoset; type: ADME, organism-based, Callithrix jacchus, Feces; details: in vivo
[5] = Cmax/dose (0-96h) of total radioactivity following oral administration of [14C] aliskiren hemifumarate at 100 mg.Kg-1 level in rat; type: ADME, organism-based, Albino HAN:WIST, Plasma; details: in vivo
[6] = Cmax (0-168h) of total radioactivity following single oral administration of [14C] aliskiren hemifumarate at 3 mg.Kg-1 level in marmoset; type: ADME, organism-based, Callithrix jacchus, Plasma; details: in vivo
[7] = AUC (0-96 or 0-168h) of total radioactivity following single oral administration of [14C] aliskiren hemifumarate at 3 mg.Kg-1 level in marmoset; type: ADME, organism-based, Callithrix jacchus, Plasma; details: in vivo
[8] = Effect of 2 week oral dosing of aliskiren hemifumarate at 100 mg.Kg-1 level on plasma alkaline phosphatase level in female Callithrix jacchus; type: toxicity, organism-based; details: marmoset, 336 h
[9] = AUC (0-24h) of aliskiren hemifumarate following 4 week oral dietary dosing of aliskiren hemifumarate at 1000 mg.Kg-1 level in male mouse; type: ADME, organism-based; details: CB6F1-TGrasH2, mouse, plasma
[10] = AUC infinity of aliskiren hemifumarate following 2 week oral dosing of aliskiren hemifumarate at 100 mg.Kg-1 level studied on day 1 in male Callithrix jacchus; type: ADME, organism-based; details: marmoset, plasma, read-out: AUC infinity
[11] = Cmax of aliskiren hemifumarate following 2 week oral dosing of aliskiren hemifumarate at 10 mg.Kg-1 level studied on […] in male Callithrix jacchus; type: ADME, organism-based; details: marmoset, plasma
[12] = Cmaxspec of aliskiren hemifumarate following 2 week oral dosing of aliskiren hemifumarate at 100 mg.Kg-1 level studied on day 14 in female Callithrix jacchus; type: ADME, organism-based, Plasma; details: marmoset, in vivo, 336 h
[13] = Cmaxspec of aliskiren hemifumarate following 2 week oral dosing of aliskiren hemifumarate at 10 mg.Kg-1 level studied on day 1 in female Callithrix jacchus; type: ADME, organism-based, Plasma; details: marmoset, in vivo, 336 h
[14] = AUC(0-24h) of aliskiren hemifumarate following 2 week oral dosing of aliskiren hemifumarate at 50 mg.Kg-1 level studied on day 1 in male Callithrix jacchus; type: ADME, organism-based; details: marmoset, plasma
[15] = Effect of 2 week oral dosing of aliskiren hemifumarate at 10 mg.Kg-1 level on hematological parameter values in male Callithrix jacchus; type: toxicity, organism-based, Plasma; details: marmoset, in vivo, 336 h
[16] = AUC of aliskiren hemifumarate following 8 day once-daily dosing of SPP100B oral solution at 640 mg level studied on day 8 in men; type: ADME, organism-based; details: male, human, plasma
[17] = AUCspec of aliskiren hemifumarate following 2 week oral dosing of aliskiren hemifumarate at 50 mg.Kg-1 level studied on day 1 in male Callithrix jacchus; type: ADME, organism-based, Plasma; details: marmoset, in vivo, 336 h
[18] = Tmax of aliskiren hemifumarate following repeated oral administration of [14C] aliskiren hemifumarate at 100 mg.Kg-1 level studied after 2h of dosing on day 1 in rat; type: ADME, organism-based, Albino HAN:WIST; details: in vivo
[19] = AUCspec of aliskiren hemifumarate following 2 week oral dosing of aliskiren hemifumarate at 50 mg.Kg-1 level studied on day 1 in female Callithrix jacchus; type: ADME, organism-based, Plasma; details: marmoset, in vivo, 336 h
[20] = Absorption (0-96h) of unlabeled aliskiren hemifumarate following oral administration of aliskiren hemifumarate at 100 mg.Kg-1 level in rat; type: ADME, organism-based; details: Albino HAN:WIST, plasma, read-out: Absorption
[21] = molecular target: Voltage-gated inwardly rectifying potassium channel KCNH2 (Homo sapiens, UniProt Q12809); test: Inhibitory concentration of aliskiren hemifumarate against cloned hERG channel expressed in human embryonic kidney cell; type: cell-based; details: hek293
Chain of Voltage-gated inwardly rectifying potassium channel KCNH2 (Q12809 whole entry): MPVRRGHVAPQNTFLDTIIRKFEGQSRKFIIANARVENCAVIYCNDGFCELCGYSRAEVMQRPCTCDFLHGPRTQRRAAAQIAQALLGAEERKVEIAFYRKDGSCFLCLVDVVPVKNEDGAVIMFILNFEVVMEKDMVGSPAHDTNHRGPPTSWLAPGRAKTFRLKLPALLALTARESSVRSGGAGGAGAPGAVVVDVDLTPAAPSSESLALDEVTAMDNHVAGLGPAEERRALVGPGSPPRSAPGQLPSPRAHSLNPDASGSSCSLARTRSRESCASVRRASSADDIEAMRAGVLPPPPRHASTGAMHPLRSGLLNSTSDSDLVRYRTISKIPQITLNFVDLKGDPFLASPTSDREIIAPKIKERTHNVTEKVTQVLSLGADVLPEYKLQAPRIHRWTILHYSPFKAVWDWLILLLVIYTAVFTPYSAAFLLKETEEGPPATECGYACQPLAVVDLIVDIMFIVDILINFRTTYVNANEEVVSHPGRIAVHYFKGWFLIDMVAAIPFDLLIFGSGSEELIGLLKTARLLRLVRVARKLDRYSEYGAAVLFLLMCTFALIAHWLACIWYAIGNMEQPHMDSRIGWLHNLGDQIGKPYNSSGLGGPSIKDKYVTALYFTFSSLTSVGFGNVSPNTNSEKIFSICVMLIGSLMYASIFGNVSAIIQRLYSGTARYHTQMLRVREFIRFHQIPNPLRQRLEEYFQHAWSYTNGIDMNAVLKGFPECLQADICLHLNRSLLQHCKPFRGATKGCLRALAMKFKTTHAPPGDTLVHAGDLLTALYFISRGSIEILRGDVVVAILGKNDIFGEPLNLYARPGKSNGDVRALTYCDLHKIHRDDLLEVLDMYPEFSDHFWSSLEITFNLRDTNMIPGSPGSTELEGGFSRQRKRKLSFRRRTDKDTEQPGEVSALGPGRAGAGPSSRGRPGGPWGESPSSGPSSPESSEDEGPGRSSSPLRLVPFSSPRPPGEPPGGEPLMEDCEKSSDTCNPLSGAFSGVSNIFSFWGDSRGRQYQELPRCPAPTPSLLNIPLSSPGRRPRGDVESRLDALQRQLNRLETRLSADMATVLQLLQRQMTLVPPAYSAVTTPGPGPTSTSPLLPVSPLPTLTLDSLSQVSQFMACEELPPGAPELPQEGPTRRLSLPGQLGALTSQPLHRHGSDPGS

Chain of CYP2C19 (P33261 whole entry): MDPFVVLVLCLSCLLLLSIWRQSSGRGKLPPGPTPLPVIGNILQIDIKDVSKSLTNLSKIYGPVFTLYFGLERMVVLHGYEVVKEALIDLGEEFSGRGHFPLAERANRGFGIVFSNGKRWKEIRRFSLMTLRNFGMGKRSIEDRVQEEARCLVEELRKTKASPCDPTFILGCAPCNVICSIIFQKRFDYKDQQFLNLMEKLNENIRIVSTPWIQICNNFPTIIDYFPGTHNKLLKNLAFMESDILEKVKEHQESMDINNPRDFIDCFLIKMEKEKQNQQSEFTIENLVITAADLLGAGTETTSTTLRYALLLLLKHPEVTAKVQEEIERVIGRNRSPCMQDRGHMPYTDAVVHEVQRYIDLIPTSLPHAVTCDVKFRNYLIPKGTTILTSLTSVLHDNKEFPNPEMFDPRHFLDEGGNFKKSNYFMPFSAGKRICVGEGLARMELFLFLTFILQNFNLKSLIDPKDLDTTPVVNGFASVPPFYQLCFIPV
Chain of CYP2C9 (P11712 whole entry): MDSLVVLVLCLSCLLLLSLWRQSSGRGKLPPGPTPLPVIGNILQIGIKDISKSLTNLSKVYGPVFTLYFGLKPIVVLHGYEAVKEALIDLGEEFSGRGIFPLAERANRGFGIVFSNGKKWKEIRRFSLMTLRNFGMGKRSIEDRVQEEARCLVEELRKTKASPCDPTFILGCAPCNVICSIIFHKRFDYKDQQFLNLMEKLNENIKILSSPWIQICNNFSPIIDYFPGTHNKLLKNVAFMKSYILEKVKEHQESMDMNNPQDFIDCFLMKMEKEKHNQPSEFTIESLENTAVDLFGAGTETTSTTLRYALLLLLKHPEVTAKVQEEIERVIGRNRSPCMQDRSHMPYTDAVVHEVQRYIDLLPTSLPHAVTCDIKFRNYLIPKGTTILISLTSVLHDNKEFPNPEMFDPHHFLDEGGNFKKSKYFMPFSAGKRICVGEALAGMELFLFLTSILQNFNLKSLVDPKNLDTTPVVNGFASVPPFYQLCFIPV

COCCCOc1cc(C[C@@H](C[C@H](N)[C@@H](O)C[C@H](C(=O)NCC(C)(C)C(N)=O)C(C)C)C(C)C)ccc1OC
inhibition at 200 µM (CYP1A2): -12.4%
inhibition at 200 µM (CYP2C9): 14.9%
inhibition at 200 µM (CYP2C19): 42.5%

COCCCOc1cc(C[C@@H](C[C@H](N)[C@@H](O)C[C@H](C(=O)NCC([14CH3])([14CH3])C(N)=O)C(C)C)C(C)C)ccc1OC.O=C(O)/C=C/C(=O)O
Radiolabel recovery [1]: 40%
AUC [2]: 5.01 µM·h
CL (Cytochrome P450 4F3): 24 µL·min/nmol
Cmax [3]: 416 nM
Cmax ([3]; iv, 10 mg/kg): 21200 nM
Radiolabel recovery [4]: 72%
Cmax normalised [5]: 0.0042 (umol/L)/(mg/kg)
Cmax normalised ([5]; iv, 10 mg/kg): 2.12 (umol/L)/(mg/kg)
Cmax [6]: 359 nM
AUC [7]: 4.84 µM·h

COCCCOc1cc(C[C@@H](C[C@H](N)[C@@H](O)C[C@H](C(=O)NCC(C)(C)C(N)=O)C(C)C)C(C)C)ccc1OC.COCCCOc1cc(C[C@@H](C[C@H](N)[C@@H](O)C[C@H](C(=O)NCC(C)(C)C(N)=O)C(C)C)C(C)C)ccc1OC.O=C(O)/C=C/C(=O)O [ALISKIREN FUMARATE]
ALP_CHANGE_TO [8]: OUTCOME = 2-fold increase over initial values. No animals died during the study.
AUC(0-t) at 24 h [9]: 4820 ng·h/mL
AUC(0-inf) [10]: 103000 ng·h/mL
Cmax [11]: 5770 ng/mL
Cmax normalised [12]: 0.106 (ug/ml)/(mg/kg)
Cmax normalised [13]: 0.396 (ug/ml)/(mg/kg)
AUC(0-t) at 24 h [14]: 58100 ng·h/mL
Change in hematology [15]: OUTCOME = Hematological parameter values did not differ from control values. No animals died during the study.
AUC at 192 h [16]: 2970 ng·h/mL
AUC normalised [17]: 1.16 ((ug.h.ml-1)/(mg/kg)
Tmax(1) [18]: 2 h
AUC normalised [19]: 1.12 ((ug.h.ml-1)/(mg/kg)
Fa [20]: ≥ 3.4%
IC25 [21]: 670.9 µM
IC50 [21]: OUTCOME = IC50 was not calculated since inhibition did not reach 50% level
